Test results as given in patent publication US20150126581A1, “MicroRNAs and Uses Thereof” (The University of Western Australia, priority 2012, published 2015).

What was measured:
obese diabetic mice = details: cited from earlier work
HeLa cells [1] = test: CellTiter 96 AQueous One (MTS) endpoint growth assay with mimosine; assay type: cell-based, human; details: mimosine 50 and 250 μM, 3 d exposure (Day 5 post miRNA transfection)
Experimental: Endpoint growth assays were then performed using the CellTiter 96® AQueous One Solution Cell Proliferation System (MTS) (Promega, USA) to determine effects of miRNAs and mimosine on cell proliferation. HeLa cells were transiently transfected with miRNA negative control or hsa-miR-331-3p/hsa-miR-642-5p as described above, and 5000 transiently transfected HeLa cells were plated in 96 well plates. Plates were incubated in a 37° C. incubator (5% CO2) for 2 days and then exposed for a further 3 days to mimosine (0, 50 or 250 μM). Media was then replaced with a MTS substrate/growth media mixture (180 μL of growth media, 20 μL MTS reagent) and left for 30 min at 37° C. Absorbance was measured using a Fluostar Optima Instrument (Walker scientific) at 450 nm.

HeLa cells [2] = details: stated ability of mimosine (arrest in G1); cited from earlier work
HeLa cells [3] = test: Observation of HeLa cell morphology and size under mimosine; assay type: cell-based, human; details: increasing concentrations of mimosine
Experimental: The effect of the combination of hsa-miR-331-3p and hsa-miR-642-5p on the transient effects of the DOHH inhibitor mimosine in HeLa cells was assessed. Initially, the xCELLigence™ System was used but growth curves could not be established using mimosine that reflected the observed changes in cell viability (data not shown). […] This was attributed to the ability of mimosine to arrest cell in […] and increase cell size by up to 25%.

Structure (SMILES)	Glucose tolerance (obese diabetic mice)	Insulin release (obese diabetic mice)	β cell mass (obese diabetic mice)	HeLa cell proliferation (MTS), mimosine alone (HeLa cells [1])	Increase of cell size (HeLa cells [2])	HeLa cell morphology (HeLa cells [3])
N=C(N)NCCCCCCCN [GC7, N1-guanyl-1,7-diaminoheptane]	improved glucose tolerance	increased insulin release	enhanced β cell mass			
NC(Cn1ccc(=O)c(O)c1)C(=O)O (stereo not drawn) [mimosine]				significant block of cell proliferation	up to 25%	changed the morphology of HeLa cells from a spindle like epithelial morphology to a large, round and flattened morphology
